Data as given in publication PMC7714403 (JCI Insight, 2020).

Key:
Test in all cases: KiNativ, MOLM13 live cells
Assay type in all cases: cell-based
[1] = target: T1, TLK1 (Homo sapiens, UniProt Q9UKI8); details: MOLM-13; 100 nM, 2 hours; Lys2; read-out: Inhibition vs DMSO
T1 sequence (Q9UKI8 1-766): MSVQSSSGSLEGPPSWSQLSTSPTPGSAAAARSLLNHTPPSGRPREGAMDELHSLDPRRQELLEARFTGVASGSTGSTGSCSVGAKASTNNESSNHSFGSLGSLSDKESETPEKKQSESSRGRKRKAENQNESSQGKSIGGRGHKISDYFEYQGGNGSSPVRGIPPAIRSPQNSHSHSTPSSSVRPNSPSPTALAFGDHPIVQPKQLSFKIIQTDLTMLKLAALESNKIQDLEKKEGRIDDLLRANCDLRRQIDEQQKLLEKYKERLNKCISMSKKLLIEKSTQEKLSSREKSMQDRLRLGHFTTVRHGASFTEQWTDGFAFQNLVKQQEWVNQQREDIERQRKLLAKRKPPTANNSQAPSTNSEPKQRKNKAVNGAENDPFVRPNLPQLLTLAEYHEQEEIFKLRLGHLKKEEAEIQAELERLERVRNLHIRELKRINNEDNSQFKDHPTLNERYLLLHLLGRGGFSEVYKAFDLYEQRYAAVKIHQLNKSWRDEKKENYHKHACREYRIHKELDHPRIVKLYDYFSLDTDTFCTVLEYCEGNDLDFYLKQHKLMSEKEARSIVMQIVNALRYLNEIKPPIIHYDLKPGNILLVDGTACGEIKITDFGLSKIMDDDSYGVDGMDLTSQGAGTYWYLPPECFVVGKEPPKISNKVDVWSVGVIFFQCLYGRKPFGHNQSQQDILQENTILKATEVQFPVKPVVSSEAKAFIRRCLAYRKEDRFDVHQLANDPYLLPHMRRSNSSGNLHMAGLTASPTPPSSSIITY
Description: (§1) Samples were analyzed by KiNativ in situ kinase profiling by ActivX Biosciences.

[2] = target: PIK3CD (Homo sapiens, UniProt O00329); details: MOLM-13; 100 nM, 2 hours; ATP; read-out: Inhibition vs DMSO
Chain of PIK3CD (O00329 whole entry): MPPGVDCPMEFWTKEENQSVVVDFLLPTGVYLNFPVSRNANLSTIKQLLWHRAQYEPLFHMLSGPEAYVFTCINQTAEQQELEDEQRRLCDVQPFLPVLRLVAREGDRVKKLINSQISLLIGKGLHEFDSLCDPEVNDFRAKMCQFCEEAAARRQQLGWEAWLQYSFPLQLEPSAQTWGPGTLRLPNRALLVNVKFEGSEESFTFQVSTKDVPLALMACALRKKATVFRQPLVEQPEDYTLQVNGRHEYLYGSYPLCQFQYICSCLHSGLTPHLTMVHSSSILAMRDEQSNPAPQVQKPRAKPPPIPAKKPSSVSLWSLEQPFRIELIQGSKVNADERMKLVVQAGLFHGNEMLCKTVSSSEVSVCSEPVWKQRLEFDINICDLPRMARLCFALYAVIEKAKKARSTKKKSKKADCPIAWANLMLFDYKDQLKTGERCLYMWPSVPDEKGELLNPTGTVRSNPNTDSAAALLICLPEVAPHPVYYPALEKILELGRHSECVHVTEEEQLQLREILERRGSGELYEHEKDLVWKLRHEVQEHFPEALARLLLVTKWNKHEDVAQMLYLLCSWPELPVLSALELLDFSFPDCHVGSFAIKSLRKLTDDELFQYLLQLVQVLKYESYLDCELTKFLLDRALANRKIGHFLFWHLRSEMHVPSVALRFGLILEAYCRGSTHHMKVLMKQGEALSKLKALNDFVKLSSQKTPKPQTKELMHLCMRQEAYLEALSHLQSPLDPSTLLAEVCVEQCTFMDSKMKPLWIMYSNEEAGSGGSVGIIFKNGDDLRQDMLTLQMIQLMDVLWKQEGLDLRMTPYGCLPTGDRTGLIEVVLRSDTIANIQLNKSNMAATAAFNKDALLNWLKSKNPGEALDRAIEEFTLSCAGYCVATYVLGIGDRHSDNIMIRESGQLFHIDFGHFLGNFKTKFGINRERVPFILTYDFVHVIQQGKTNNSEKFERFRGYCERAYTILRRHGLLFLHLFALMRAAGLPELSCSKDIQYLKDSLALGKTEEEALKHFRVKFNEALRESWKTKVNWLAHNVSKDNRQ
Chain of PIK3CD (P27986 whole entry partner): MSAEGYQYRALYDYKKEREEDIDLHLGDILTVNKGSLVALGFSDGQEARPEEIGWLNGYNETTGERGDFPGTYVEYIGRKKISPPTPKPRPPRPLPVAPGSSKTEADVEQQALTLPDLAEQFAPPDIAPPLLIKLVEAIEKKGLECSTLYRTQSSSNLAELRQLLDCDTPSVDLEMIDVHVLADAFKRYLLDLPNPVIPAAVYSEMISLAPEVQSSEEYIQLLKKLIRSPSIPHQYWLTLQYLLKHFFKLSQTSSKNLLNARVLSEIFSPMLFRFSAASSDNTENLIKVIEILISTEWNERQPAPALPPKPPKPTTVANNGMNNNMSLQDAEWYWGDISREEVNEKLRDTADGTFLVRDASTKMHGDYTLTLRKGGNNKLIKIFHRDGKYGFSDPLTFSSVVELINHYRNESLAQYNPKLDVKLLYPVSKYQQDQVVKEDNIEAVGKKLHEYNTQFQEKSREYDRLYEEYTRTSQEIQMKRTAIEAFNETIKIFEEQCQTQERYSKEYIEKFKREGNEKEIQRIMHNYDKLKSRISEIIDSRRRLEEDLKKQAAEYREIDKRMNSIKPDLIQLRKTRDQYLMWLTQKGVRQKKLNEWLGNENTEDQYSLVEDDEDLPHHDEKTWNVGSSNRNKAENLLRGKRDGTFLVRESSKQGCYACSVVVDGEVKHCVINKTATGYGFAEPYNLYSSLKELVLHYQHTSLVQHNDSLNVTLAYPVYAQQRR
Description: as §1

[3] = target: SLK (Homo sapiens, UniProt Q9H2G2); details: MOLM-13; 100 nM, 2 hours; Lys2; read-out: Inhibition vs DMSO
Chain of SLK (Q9H2G2 whole entry): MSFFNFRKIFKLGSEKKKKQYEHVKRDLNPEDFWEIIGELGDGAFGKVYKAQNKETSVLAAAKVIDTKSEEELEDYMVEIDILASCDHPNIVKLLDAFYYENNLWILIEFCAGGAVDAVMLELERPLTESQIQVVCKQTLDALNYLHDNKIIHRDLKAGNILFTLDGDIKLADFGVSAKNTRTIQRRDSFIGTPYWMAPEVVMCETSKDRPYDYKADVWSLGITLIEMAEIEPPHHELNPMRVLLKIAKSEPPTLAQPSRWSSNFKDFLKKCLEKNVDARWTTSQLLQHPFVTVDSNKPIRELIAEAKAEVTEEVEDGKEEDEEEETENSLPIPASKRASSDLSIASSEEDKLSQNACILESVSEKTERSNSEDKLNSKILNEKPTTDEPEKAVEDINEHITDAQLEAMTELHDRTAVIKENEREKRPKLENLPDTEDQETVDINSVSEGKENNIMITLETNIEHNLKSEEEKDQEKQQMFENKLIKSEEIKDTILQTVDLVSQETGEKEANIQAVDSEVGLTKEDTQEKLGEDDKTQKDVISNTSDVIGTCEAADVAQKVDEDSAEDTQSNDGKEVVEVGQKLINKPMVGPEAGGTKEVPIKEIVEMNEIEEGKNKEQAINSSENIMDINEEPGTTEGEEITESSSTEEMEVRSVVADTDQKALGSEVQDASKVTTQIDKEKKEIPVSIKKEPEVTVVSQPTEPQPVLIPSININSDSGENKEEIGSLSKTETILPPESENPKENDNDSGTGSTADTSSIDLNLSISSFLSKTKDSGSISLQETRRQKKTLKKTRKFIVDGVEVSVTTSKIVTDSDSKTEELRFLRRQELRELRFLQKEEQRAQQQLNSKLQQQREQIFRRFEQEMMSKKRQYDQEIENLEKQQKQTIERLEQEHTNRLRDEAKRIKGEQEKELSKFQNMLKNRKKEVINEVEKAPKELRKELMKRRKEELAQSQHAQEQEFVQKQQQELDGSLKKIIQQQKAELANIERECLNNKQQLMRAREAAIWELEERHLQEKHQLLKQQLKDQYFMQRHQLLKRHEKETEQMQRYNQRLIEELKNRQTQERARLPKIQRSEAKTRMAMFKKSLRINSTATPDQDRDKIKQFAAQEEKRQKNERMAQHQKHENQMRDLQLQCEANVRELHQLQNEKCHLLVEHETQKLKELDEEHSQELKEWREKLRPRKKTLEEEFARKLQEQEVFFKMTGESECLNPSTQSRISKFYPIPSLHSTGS
Description: as §1

[4] = target: T2, MASTL (Homo sapiens, UniProt Q96GX5); details: 100 nM, 2 hours
T2 sequence (Q96GX5 1-879): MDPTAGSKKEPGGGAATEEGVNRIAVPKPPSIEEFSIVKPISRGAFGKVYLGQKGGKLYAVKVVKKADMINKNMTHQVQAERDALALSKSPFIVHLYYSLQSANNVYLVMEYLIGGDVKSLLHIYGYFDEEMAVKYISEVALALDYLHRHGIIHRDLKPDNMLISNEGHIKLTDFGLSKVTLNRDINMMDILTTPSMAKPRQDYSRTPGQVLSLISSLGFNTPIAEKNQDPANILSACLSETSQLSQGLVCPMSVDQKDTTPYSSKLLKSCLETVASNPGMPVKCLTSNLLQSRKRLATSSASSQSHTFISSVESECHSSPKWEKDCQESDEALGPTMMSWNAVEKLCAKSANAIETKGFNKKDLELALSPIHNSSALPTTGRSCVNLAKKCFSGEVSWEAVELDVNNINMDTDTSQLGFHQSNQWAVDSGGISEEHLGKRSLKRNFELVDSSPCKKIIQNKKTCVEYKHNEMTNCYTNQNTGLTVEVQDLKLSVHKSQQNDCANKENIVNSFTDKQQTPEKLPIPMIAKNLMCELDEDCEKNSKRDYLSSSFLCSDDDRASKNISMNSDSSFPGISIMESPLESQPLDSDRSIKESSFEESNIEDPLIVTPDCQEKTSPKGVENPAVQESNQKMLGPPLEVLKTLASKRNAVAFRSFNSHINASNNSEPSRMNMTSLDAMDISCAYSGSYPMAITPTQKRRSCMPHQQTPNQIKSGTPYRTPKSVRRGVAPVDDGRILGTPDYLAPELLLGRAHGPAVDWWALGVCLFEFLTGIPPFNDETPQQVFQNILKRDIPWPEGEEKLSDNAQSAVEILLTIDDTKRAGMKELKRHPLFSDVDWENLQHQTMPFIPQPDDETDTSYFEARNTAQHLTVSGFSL
Description: as §1

[5] = target: CDK10 (Homo sapiens, UniProt Q15131); details: MOLM-13; 100 nM, 2 hours; Lys2; read-out: Inhibition vs DMSO
Chain of CDK10 (Q15131 whole entry): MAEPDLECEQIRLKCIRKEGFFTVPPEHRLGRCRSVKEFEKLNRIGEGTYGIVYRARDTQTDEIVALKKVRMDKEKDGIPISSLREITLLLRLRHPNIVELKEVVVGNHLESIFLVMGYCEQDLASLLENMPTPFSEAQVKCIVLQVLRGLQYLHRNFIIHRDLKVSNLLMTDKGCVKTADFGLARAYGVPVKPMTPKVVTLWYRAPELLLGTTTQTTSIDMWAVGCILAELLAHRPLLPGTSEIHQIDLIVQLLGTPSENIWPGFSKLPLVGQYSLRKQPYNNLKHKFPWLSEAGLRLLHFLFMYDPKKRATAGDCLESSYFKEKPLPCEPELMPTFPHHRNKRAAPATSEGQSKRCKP
Description: as §1

[6] = target: MAP3K3 (Homo sapiens, UniProt Q99759); details: MOLM-13; 100 nM, 2 hours; Lys1; read-out: Inhibition vs DMSO
Chain of MAP3K3 (Q99759 whole entry): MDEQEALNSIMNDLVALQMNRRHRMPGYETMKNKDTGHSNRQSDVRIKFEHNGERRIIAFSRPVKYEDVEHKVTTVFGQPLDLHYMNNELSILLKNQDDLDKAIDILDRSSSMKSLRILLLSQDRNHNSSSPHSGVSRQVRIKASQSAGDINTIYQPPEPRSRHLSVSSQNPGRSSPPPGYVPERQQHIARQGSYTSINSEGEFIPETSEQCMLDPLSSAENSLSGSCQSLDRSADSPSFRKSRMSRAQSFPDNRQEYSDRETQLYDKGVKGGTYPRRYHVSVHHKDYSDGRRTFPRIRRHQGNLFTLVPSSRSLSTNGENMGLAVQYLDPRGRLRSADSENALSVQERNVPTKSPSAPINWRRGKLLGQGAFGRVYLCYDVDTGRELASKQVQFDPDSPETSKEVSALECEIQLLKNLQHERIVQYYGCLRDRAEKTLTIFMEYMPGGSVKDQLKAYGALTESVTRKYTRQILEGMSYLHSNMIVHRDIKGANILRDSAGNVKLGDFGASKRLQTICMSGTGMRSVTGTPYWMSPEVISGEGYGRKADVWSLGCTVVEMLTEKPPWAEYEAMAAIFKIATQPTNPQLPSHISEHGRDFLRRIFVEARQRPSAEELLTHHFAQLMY
Description: as §1

[7] = target: NEK3 (Homo sapiens, UniProt P51956); details: MOLM-13; 100 nM, 2 hours; Activation Loop; read-out: Inhibition vs DMSO
Description: as §1

[8] = target: PEK (Homo sapiens, UniProt Q9NZJ5); details: 100 nM, 2 hours, Lys2, read-out: Inhibition vs DMSO
Chain of PEK (Q9NZJ5 30-1116): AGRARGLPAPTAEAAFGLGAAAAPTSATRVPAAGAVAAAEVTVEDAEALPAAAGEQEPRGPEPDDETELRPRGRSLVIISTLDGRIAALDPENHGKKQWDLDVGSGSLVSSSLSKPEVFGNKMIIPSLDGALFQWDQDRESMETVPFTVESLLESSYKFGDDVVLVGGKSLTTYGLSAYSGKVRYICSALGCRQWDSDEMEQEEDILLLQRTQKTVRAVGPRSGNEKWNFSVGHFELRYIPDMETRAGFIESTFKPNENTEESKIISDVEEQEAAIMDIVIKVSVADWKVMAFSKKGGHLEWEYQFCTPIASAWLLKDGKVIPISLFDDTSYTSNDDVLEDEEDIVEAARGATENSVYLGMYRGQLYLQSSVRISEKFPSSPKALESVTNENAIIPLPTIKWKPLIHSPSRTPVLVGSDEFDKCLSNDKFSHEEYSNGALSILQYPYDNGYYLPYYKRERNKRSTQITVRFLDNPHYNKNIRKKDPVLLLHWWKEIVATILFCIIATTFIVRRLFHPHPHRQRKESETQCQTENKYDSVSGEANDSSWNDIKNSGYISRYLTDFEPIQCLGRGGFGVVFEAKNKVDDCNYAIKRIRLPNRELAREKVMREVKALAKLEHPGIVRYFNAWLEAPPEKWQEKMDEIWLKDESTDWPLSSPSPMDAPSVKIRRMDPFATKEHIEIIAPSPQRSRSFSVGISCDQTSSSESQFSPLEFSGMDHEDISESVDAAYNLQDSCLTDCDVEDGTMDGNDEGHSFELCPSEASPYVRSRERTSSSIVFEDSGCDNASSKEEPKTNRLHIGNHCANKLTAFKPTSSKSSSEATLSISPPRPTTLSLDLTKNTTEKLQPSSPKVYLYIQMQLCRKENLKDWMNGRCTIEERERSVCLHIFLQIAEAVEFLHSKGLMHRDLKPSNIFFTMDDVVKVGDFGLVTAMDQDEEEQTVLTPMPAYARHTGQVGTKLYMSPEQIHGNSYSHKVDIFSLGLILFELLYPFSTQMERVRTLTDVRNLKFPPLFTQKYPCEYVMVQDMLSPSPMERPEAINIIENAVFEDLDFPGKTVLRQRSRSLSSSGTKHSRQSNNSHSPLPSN
Description: as §1

[9] = target: T3, IRAK3 (Homo sapiens, UniProt Q9Y616); details: MOLM-13; 100 nM, 2 hours; Lys1; read-out: Inhibition vs DMSO
T3 sequence (Q9Y616 1-596): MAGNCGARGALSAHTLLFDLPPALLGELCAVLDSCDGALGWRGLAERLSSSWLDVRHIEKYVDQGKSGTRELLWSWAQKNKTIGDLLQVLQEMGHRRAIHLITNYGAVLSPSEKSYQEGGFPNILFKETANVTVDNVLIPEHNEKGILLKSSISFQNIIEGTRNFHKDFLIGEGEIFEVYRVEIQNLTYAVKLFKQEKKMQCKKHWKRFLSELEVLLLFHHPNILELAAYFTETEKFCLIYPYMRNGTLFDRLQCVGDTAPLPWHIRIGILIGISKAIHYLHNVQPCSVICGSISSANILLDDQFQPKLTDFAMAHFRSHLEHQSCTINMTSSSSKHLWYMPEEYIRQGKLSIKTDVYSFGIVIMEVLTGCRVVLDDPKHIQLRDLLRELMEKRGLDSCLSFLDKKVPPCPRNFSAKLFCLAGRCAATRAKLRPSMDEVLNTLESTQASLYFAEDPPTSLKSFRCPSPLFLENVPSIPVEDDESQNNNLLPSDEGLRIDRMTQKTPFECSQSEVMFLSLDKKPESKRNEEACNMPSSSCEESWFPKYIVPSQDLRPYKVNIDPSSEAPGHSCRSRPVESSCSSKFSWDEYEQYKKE
Description: as §1

## CN1CCN(Cc2ccc(Nc3ncc(Cl)c(Nc4ccccc4S(=O)(=O)N(C)C)n3)cc2)CC1 [TP-0903]
[1]
  inhibition at 0.1 µM: 16%
[2]
  inhibition at 0.1 µM: -4.6%
[3]
  inhibition at 0.1 µM: 72.2%
[4]; ATP Loop
  Inhibition vs DMSO: 10.4%
[4]; Lys1
  Inhibition vs DMSO: -9.8%
[5]
  inhibition at 0.1 µM: 33.7%
[6]
  inhibition at 0.1 µM: 13%
[7]
  inhibition at 0.1 µM: 14.6%
[8]
  inhibition at 0.1 µM: 1.7%
[9]
  inhibition at 0.1 µM: 92.5%
